Data published in patent publication US20230184756A1, “BIOMATERIALS” (INSTITUTO DE MEDICINA MOLECULAR JOÃO LOBO ANTUNES, priority 2020, published 2023).
“Also recorded” adds a separate entry of the source. Peptide text beside a SMILES is read from it.

Key:
[1] = Atomic force microscopy of amyloid fibril formation, morphology and dimensions; type: physicochemical; details: AFM, 2 weeks incubation at physiologic pH
From the text: According to experimental procedures at the host lab^57-59, the samples were placed in poly-1-lysine slides and dried using a vacuum chamber. When fully dried, the samples were rinsed with ultra-pure water and dried with a gentle N2 air flux. A NanoWizard II atomic force microscope (JPK Instruments, Berlin, Germany), mounted on the top of an Axiovert 200 inverted optical microscope (Zeiss, Jena, Germany), was used for the microscopic experiments. The AFM head is equipped with a 5.85-μm z-range linearized piezoelectric scanner and an infrared laser. For the acquisition of the different AFM images, it was used a ACL-50 tip (Applied NanoStructures, Inc., California, USA) with a spring constant between 20-95 N/m and a frequency between 145-230 kHz. Amyloid fibrils were acquired in intermittent (air) mode with a setpoint of between 0.4-0.5 V, a line rate of 0.7-0.8 Hz, an IGain of 20-50 Hz and a PGain of 0.001-0.004. The images acquired were treated afterwards with the JPKSPM Data Processing (JPK Instruments, Berlin, Germany).
The most promising amyloidogenic peptide is typically selected. For this purpose, atomic force microscopy (AFM) was employed. AFM is a technique that can be very useful in the acquisition of surface images with high resolution and sensibility, being therefore suitable for such studies of amyloid fibrils and employed in this analysis. […] Regarding GNNQQNY (FIG. 2, first row from the top), at the start of incubation there are no visible structures. At the end of the incubation period tested (2 weeks), heterogeneous structures are visible. […] In contrast, QVQIIE, ISFLIF and STVIIE peptides show amyloid morphologies at the end of the incubation period tested (FIG. 2). […] This is consistent with the β-sheet content of QVQIIE and ISFLIF at the end of the incubation period, measured via Fourier transform infrared spectroscopy (FIG. 12) and binding profile to Congo Red (FIG. 13). […] As for STVIIE, it forms clear fibril structures in the conditions tested. […]

[2] = Sample preparation: highest concentration at which the peptide fully dissolves; type: physicochemical; details: for highest final concentration that they were able to be fully dissolved: 50 mM Tris-HCl pH 7.5, 5 mM EDTA buffer, room temperature
Method: STVIIE, GNNQQNY, QVQIIE and ISFLIF were prepared at the highest final concentration that they were able to be fully dissolved, respectively 1 mg/mL (STVIIE and GNNQQNY), 0.55 mg/mL (QVQIIE) and 0.1 mg/mL (ISFLIF). For all peptide samples the final incubation buffer was 50 mM Tris-HCl pH 7.5, 5 mM EDTA buffer. Briefly, after weighing the peptide, half of the final volume of H2O ultrapure was added. A short vortex of approximately 1500 rpm and 30 seconds and an ultrasound bath of 280 seconds in water/ice were performed two times. The other half of the final volume was then added, containing 100 mM Tris-HCl pH 7.5, 10 mM EDTA buffer was added, with the peptide samples being therefore in the final incubation buffer. Before incubation, two other cycles of vortex and ultrasound bath were performed. The final peptide solution sample was incubated at room temperature.

[3] = system: Human H4 neuroglioma cells; experiment: LDH release cytotoxicity assay
[4] = FTIR spectroscopy of secondary structure; type: physicochemical; details: followed for 6 hours
Method: Following previous approaches^11,54, peptide samples were applied to the FTIR sample holder at 298.15 K. InfraRed spectra were recorded on a Bruker Tensor 27 infrared spectrophotometer (Bruker Optik GmbH, Ettlingen, Germany) equipped with a Bio-ATR II accessory. The spectrophotometer was continuously purged with dried air. Spectra were recorded at a spectral resolution of 4 cm^−1 and 120 accumulations were performed per measurement. The final spectra were corrected to the baseline (the final incubation buffer) and rescaled in the amide I area (˜1600 to ˜1700 cm^−1).
The formation of aggregates by STVIIE quickly leads the larger elements to deposit from solution. This hinders circular dichroism studies of STVIIE secondary structure. For this reason Fourier transform infra-red (FTIR) spectroscopy was used instead (FIG. 3f-g). The changes in secondary structure content were followed for 6 hours (FIG. 3f). Then, after 6 hours, when amyloid structures are readily visible (FIG. 3a), the experiment was terminated. This time frame is also chosen given that for nanotechnology applications short incubation periods can be necessary and/or preferable. The peptides spectra are consistent with antiparallel β-sheet/aggregated strands (1675-1695 cm^−1) and β-sheet (1625-1640 cm^−1) secondary structure being present (FIG. 3f). […]

streptavidin = streptavidin (Streptomyces avidinii, UniProt P22629); experiment: Binding to free streptavidin by intrinsic tryptophan fluorescence; details: 0.8 μM streptavidin
From the text: In terms of secondary structure, evaluated via Fourier Transform Infra Red (FITR) spectroscopy (FIG. 5b), the observations echo the results obtained with (non-biotinylated) STVIIE fibrils (confront with FIG. 3f). Addition, via a PEG9 linker, of a biotin moiety to STVIIE N-terminus results in biotin functionalized STVIIE amyloid fibrils. These fibrils show both the […] and the antiparallel cross β-sheet peaks, being quite similar to the spectra obtained with free (non-biotinylated) STVIIE. Then, the activity of the bioactive molecule (biotin) attached to the fibrils was tested, namely the ability to bind its target bridge element molecule (streptavidin), when free in solution (FIG. 5c-g). […] Briefly, the fluorescence intensity spectra of 0.8 μM streptavidin in solution, treated with buffer (FIG. 5c, leftmost graph), free biotin (FIG. 5c, second graph from the left), non-biotinylated free amyloid peptide (FIG. 5c, third from the left) or biotinylated amyloidogenic peptide fibrils (FIG. 5c, rightmost graph) were compared. A drop on the fluorescence signal (decreased quantum yield) accompanied by peak shifting towards the left (blue shift) indicates streptavidin binding to biotin (FIG. 5c). […] The addition of biotinylated peptide to streptavidin produces a similar blue shift of the fluorescence emission maximum (from 340 to 330 nm), as observed when free biotin is added. […]

For “Aβ(1-42): Amyloid β peptide (involved in Alzheimer's disease), positive control of fibrillization [reference compound]”, the “morphology at end of incubation” value [1] was “form typical amyloid fibrils”.
For QVQIIE, the “highest final concentration that they were able to be fully dissolved” value [2] was 0.55 mg/mL and the “morphology at end of incubation” value [1] was “amyloid-like gel structure”.
In the case of CC[C@H](C)[C@H](N)C(=O)N[C@@H](CO)C(=O)N[C@@H](Cc1ccccc1)C(=O)N[C@@H](CC(C)C)C(=O)N[C@H](C(=O)N[C@@H](Cc1ccccc1)C(=O)O)[C@@H](C)CC [ISFLIF] (H-ISFLIF-OH; N-terminus and C-terminus assumed), the “solubility in physiological conditions” value ([2]; physiological conditions) is reported as “difficult to dissolve at high concentrations”.
Triton [reference compound] gave a cell death ([3]; 0.2, 2.0 and 20 μM, 6 to 24 hours, buffer control 10-15%) of 100%.
For CC[C@H](C)[C@H](NC(=O)[C@@H](NC(=O)[C@@H](NC(=O)[C@@H](N)CO)[C@@H](C)O)C(C)C)C(=O)N[C@H](C(=O)N[C@@H](CCC(=O)O)C(=O)O)[C@@H](C)CC [STVIIE] (H-STVIIE-OH; N-terminus and C-terminus assumed), the “time for relative ratio of β-sheet secondary structure to stabilize” value [4] was “less than 3 hours” and the “toxicity to cells (LDH release)” value ([3]; fibrils at 0.2, 2 and 20 μM, 6 and 24 hours) was “not toxic; also recorded: not cytotoxic”.
For O=C(O)CCCC[C@@H]1SC[C@@H]2NC(=O)N[C@@H]21 [biotin, 5-[(3aS,4S,6aR)-2-oxohexahydro-1H-thieno[3,4-d]imidazol-4-yl]pentanoic acid], the “concentration at which the peak shift achieves saturation” value (streptavidin) was about 4 µM and the “blue shift of streptavidin fluorescence emission peak maximum” value (streptavidin; peptide and/or biotin 0 to 13.6 μM) was 10 nm.
With GNNQQNY [short amyloidogenic peptide] the “highest final concentration that they were able to be fully dissolved” value [2] was 1 mg/mL and the “morphology at end of incubation” value [1] was “not consistent with the well-defined amyloid fibril morphology”.
